The test system of one data set is SJSA-1 xenograft. In words: In vivo efficacy in the SJSA-1 xenograft model in mice. The conditions noted are these: compound 93 100 mg/kg p.o. q1dx14 vs control NaCl 0.9%, female Crl:SHO-Prkdc scid Hr hr mice, during and at the end of study. The protocol: The experiment was conducted on female mice from the Crl:SHO-Prkdc^scidHr^hr strain. Mice were inoculated subcutaneously in the right flank with cancer cell line SJSA-1 in the amount of […] cells suspended in 100 μl HBSS: Matrigel matrix in a 3:1 ratio per mouse. On the 16th day after inoculation mice were divided into groups, so that in each group the mean tumor volume was similar and averaged around 160 mm^3. Two experiment groups were selected, each consisting of 5 mice: Control NaCl 0.9% and compound 93. The compound 93 was dissolved in 15% PEG400, 10% Cremophore EL, 75% H2O.
Mice used in the experiment were administered per os (p.o.) with compounds or NaCl 0.9% in a q1dx14 schedule (14 doses, daily). During the course of experiment mice were weighed before each administration,—twice/thrice a week. Animal welfare was monitored daily.
Change in tumor volume was monitored twice/thrice a week starting from the first day of administration. Tumor volume was calculated based on its length and width measured with an electronic calipers:
V[mm^3]=d^2×D/2 • where d—width, D—length.
The tumor volume in the compound 93 group was measured up to 68 days after inoculation (39 days after last administration). Results of the experiment were expressed as mean values of tumor volume ±SEM. All calculations and graphs were performed using GraphPad Prism 5 software. […]

The target in data set [1] is T1, p53-Mdm2 interaction (N-terminal domain of Mdm2 protein, amino acids 1-111) (Homo sapiens, UniProt Q00987).
T1 construct: N-terminal domain of Mdm2 protein (amino acids 1-111)
T1 sequence (Q00987 1-111): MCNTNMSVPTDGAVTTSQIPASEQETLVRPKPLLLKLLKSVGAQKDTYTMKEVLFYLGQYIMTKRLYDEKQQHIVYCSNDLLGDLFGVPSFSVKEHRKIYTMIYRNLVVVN
In words: Fluorescence polarization (FP) binding assay of p53-Mdm2 interaction. The conditions noted are these: FP assay, 130 nM Mdm2, FAM-labelled p53 peptide; Ki transformed from IC50 using Kenakin equation. The method, boiled down:
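N-terminal Mdm2 (aa 1-111) at 130 nM preincubated 15 min with compound (5% DMSO) in PBS, 0.1% CHAPS, 5 mM DTT, then […] FAM-labelled p53 peptide added. Polarization read after 90 min at room temperature (ex 470/em 520 nm). IC50 converted to Ki by Kenakin equation.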

The test system of data set [2] is SJSA-1 osteosarcoma cell line. In words: MTT cell viability assay. It counts as cell-based. The conditions noted are these: Homo sapiens, SJSA-1, 72 h, 72 h incubation, average of 2-5 experiments. The method, boiled down: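 Cells exposed to serial compound dilutions for 72 h, then MTT (0.5 mg/ml final) added for 4 h; formazan dissolved in DMSO. IC50 from dose-response curves, 2-5 independent repeats.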
A general note: Tetrazolium dyes change colour on reduction, which living cells bring about.

By Ki is commonly meant a measure of affinity in units of concentration, obtained from inhibition or displacement. Low readings indicate a stronger hold on the target, high ones a looser hold on the target. Broadly, the IC50 is the concentration that inhibits the measured activity by half. Low values mean higher potency, high ones lower potency. `COc1ccc(-n2cc3c(c2C(C)C)C2(C(=O)Nc4cc(Cl)ccc42)N(c2cc(Cl)ccc2C)C3=O)c(OC)c1` (centres unmarked) [Compound 93, 6-chloro-2′-(5-chloro-2-methylphenyl)-5′-(2,4-dimethoxyphenyl)-6′-(propan-2-yl)-1,2,3′,5′-tetrahydro-2′H-spiro[indole-3,1′-pyrrolo[3,4-c]pyrrole]-2,3′-dione]: the “difference in body weight or welfare between experiment groups” value in the data set on SJSA-1 xenograft is on record as “No significant difference”. Also, in data set [1], the Ki is 3.8 nM. For the same compound, the IC50 in data set [2] was 0.42 µM.
Compound `COc1ccc(-n2cc3c(c2C(C)C)[C@@]2(C(=O)Nc4cc(Cl)ccc42)N(c2cc(Cl)cnc2C)C3=O)c(OC)c1` [Compound 111, (3S)-6-chloro-2′-(5-chloro-2-methyl-pyridin-3-yl)-5′-(2,4-dimethoxyphenyl)-6′-(propan-2-yl)-1,2,3′,5′-tetrahydro-2′H-spiro[indole-3,1′-pyrrolo[3,4-c]pyrrole]-2,3′-dione] gave a Ki in data set [1] of 2.8 nM. For the same compound, the IC50 in data set [2] amounted to 0.12 µM.
The corresponding values for `COc1ccc(S(=O)(=O)N2CCOCC2)cc1-n1cc2c(c1C(C)C)C1(C(=O)Nc3cc(Cl)ccc31)N(c1cc(Cl)ccc1C)C2=O` (centres unmarked) [Compound 112, 6-chloro-2′-(5-chloro-2-methylphenyl)-5′-[2-methoxy-5-(morpholine-4-sulfonyl)phenyl]-6′-(propan-2-yl)-1,2,3′,5′-tetrahydro-2′H-spiro[indole-3,1′-pyrrolo [3,4-c]pyrrole]-2,3′-dione] are 3.5 nM and 0.15 µM.
In turn, `COc1sccc1-n1cc2c(c1C(C)C)C1(C(=O)Nc3cc(Cl)ccc31)N(c1cc(Cl)ccc1C)C2=O` (centres unmarked) [Compound 113, 6-chloro-2′-(5-chloro-2-methylphenyl)-5′-(2-methoxythiophen-3-yl)-6′-(propan-2-yl)-1,2,3′,5′-tetrahydro-2′H-spiro[indole-3,1′-pyrrolo[3,4-c]pyrrole]-2,3′-dione] had a Ki in data set [1] of 3.4 nM. In data set [2], this compound registered an IC50 of 0.69 µM.
`COc1ccc(-n2nc3c(c2C(C)C)C2(C(=O)Nc4cc(Cl)ccc42)N(c2cc(Cl)ccc2C)C3=O)c(OC)n1` (centres unmarked) [Compound 114, 6-chloro-5′-(5-chloro-2-methylphenyl)-2′-(2,6-dimethoxypyridin-3-yl)-3′-(propan-2-yl)-1,2,5′,6′-tetrahydro-2′H-spiro[indole-3,4′-pyrrolo[3,4-c]pyrazole]-2,6′-dione] displayed a Ki in data set [1] of 3.3 nM. The IC50 in data set [2] came out at 0.29 µM.
